Where two headings read alike, the source gives them in different places. Non-standard residues stand in square brackets, D forms with d.
Experiments:
tPA = molecular target: T1, tPA (Homo sapiens, UniProt P00750); assay: Amidolytic activity of t-PA (substrate S-2288); format: biochemical; conditions: for IC50: amidolytic activity, S-2288, tris buffer pH 8.4
T1 construct: purchased Boehringer Ingelheim GmbH (Ingelheim, Germany)
Experimental: (§1) Determination of amidolytic activity was performed as previously described by (Okada et al. [1988]). Buffer and 0.1 ml of enzyme solution was added to 0.2 ml of examined compound dissolved in 0.15 M NaCl (1–15) (as control 0.15 M NaCl). The buffer and the enzyme solution included: • tris buffer—0.6 ml (pH 8.8), enzyme: urokinase (50 units/ml), synthetic substrate: S-2444 (0.1 ml, 3 mM); • tris buffer—0.5 ml (pH 8.4), enzyme: thrombin (1 units/ml), synthetic substrate: S-2238 (0.2 ml, 0.75 mM); • tris buffer—0.5 ml (pH 7.4), enzyme: plasmin (0.4 units/ml), synthetic substrate: S-2251 (0.2 ml, 3 mM); • […]—0.5 ml (pH 7.5), enzyme: trypsin (0.4 units/ml), synthetic substrate: Bzl-L-Arg–pNA.HCl (0.2 ml, 8 mM); • tris buffer—0.6 ml (pH 9.0), enzyme: kallikrein (3 units/ml), synthetic substrate: S-2266 (0.1 ml, 75 mM); • tris buffer—0.6 ml (pH 8.4), enzyme: t-PA ([…]), synthetic substrate: S-2288 (0.1 ml, 10 mM).
(§2) IC50 values were determined (IC50, Inhibitor Concentration, the concentration at which enzyme activity is inhibited by 50 %). Our results were compared with the 6-aminohexanoic acid.

uPA = molecular target: T2, uPA (Homo sapiens, UniProt P00749); assay: Amidolytic activity of urokinase (substrate S-2444); format: biochemical; conditions: for IC50: amidolytic activity, S-2444, tris buffer pH 8.8
T2 construct: purchased Sigma (Schnelldorf, Germany)
Experimental: as §1, §2

plasmin [1] = molecular target: T3, plasmin (Homo sapiens, UniProt P00747); assay: Amidolytic activity of plasmin (substrate S-2251); format: biochemical; conditions: for IC50: amidolytic activity, S-2251, tris buffer pH 7.4
T3 construct: The amino-terminal heavy chain of PL consists of five kringle domains; The C-terminal light chain of plasmin is a typical serine protease (SP); purchased Chromogenix (Milano, Italy)
T3 sequence (P00747 97-580 limits assumed): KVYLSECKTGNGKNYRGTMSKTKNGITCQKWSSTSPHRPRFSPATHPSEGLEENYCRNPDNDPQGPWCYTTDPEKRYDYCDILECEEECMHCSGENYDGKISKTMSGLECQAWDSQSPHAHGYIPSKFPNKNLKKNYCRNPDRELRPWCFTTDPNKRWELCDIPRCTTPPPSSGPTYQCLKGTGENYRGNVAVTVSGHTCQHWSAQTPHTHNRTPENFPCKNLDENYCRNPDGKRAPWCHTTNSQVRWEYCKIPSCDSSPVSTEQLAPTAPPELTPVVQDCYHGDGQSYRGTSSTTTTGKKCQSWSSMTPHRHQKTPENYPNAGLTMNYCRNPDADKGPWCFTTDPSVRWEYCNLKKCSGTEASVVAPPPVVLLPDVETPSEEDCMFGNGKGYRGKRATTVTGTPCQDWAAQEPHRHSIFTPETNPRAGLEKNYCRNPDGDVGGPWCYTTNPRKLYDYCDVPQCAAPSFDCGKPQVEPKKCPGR
T3 sequence (P00747 581-810 limits assumed): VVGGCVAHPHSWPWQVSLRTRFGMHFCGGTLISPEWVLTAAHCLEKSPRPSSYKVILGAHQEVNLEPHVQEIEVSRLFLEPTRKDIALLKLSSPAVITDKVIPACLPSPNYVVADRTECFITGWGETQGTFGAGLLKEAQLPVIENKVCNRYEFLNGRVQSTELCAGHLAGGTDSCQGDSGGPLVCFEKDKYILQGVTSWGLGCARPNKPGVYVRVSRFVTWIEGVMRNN
Experimental: as §1, §2

thrombin = molecular target: T4, thrombin (Bos taurus, UniProt P00735); assay: Amidolytic activity of thrombin (substrate S-2238); format: biochemical; conditions: for IC50: amidolytic activity, S-2238, tris buffer pH 8.4
T4 construct: purchased Lubelska Wytwórnia Szczepionek (Lublin, Poland)
Experimental: as §1, §2

trypsin = assay: Amidolytic activity of trypsin (substrate Bzl-L-Arg-pNA); format: biochemical
Experimental: as §1, §2

fibroblast cells = assay: Cytotoxicity assay, normal cells; format: cell-based
kallikrein = assay: Amidolytic activity of kallikrein (substrate S-2266); format: biochemical; conditions: maximum concentration 20 mM, S-2266, pH 9.0
Experimental: as §1, §2

[2] = tested on: fibrinolysis in whole blood; assay: Thromboelastometric (ROTEM) analysis of clot formation and fibrinolysis in whole blood; parameters: species or system human; conditions: for clotting time (CT, coagulation time) / lysis of the clot in 45 min (from LI45): human whole blood; for clotting time (CT, coagulation time): control 174 s; for lysis of the clot in 45 min (from LI45): whole blood alone about 61 %; for LOT lysis onset time (clot amplitude reduced by 15 %) / LT lysis time (clot reduced/lysed by 90 %) / LI30 lysis index, amplitude of clot after 30 min / LI45 lysis index, amplitude of clot after 45 min / LI60 lysis index, amplitude of clot after 60 min: recalcified human whole blood; for LOT lysis onset time (clot amplitude reduced by 15 %) / LT lysis time (clot reduced/lysed by 90 %): 140 ng/ml TF, 125 ng/ml tPA; for LI30 lysis index, amplitude of clot after 30 min / LI45 lysis index, amplitude of clot after 45 min / LI60 lysis index, amplitude of clot after 60 min: TF + tPA
Experimental: Five healthy volunteers, men (age range: 25–34 years)) with normal blood cell counts were entered into the study. Healthy volunteers had not taken medication known to affect platelet function and/or coagulation for at least 10 days before blood sampling.
Blood was stored at room temperature for 30 min after venipuncture and then was evaluated by thromboelastometric analyses.
Thromboelastometric measurements were performed using ROTEM system (Tem International GmbH, Manheim, Germany). […] We measured the parameters characterized kinetic of clot formation (clotting time, alpha angle), clot strength (maximal clot firmness; MCF), and fibrinolysis (percentage reduction of MCF, clot lysis time).

[3] = tested on: colon cancer cell line DLD-1; assay: Cytotoxicity assay (method of Plumb et al.); format: cell-based; conditions: 10, 100, 250, 500 and 1000 μM
Experimental: (§3) All studies were performed on MCF-7, MDA-MB-231 and DLD cells lines were purchased from American Type Culture Collection (Rockville, MD). The cells were maintained in DMEM supplemented with 5 % fetal bovine serum (FBS), […] glutamine, 50 U/ml penicillin, […] streptomycin at 37 °C in a 5 % CO2 incubator.
(§4) The toxicity of the evaluated peptides was determined by the method of Plumb et al. ([1989]) in 10, 100, 250, 500 and 1000 μM concentrations. MCF-7, MDA-MB-231 and DLD cells were maintained as described above. The detailed description of the method is given by (Markowska et al. [2013]).

MDA-MB-231 cells = assay: Cytotoxicity assay (method of Plumb et al.); format: cell-based; conditions: 10, 100, 250, 500 and 1000 μM
Experimental: as §3, §4

MCF-7 cells = assay: Cytotoxicity assay (method of Plumb et al.); format: cell-based; conditions: 10, 100, 250, 500 and 1000 μM
Experimental: as §3, §4

plasmin [4] = molecular target: T3, plasmin; conditions: cited from earlier work; for inhibitory effect on plasmin activity: ref Midura-Nowaczek et al. [2003]
[5] = ref Midura-Nowaczek et al. [1990]

T1 sequence (P00750 36-562): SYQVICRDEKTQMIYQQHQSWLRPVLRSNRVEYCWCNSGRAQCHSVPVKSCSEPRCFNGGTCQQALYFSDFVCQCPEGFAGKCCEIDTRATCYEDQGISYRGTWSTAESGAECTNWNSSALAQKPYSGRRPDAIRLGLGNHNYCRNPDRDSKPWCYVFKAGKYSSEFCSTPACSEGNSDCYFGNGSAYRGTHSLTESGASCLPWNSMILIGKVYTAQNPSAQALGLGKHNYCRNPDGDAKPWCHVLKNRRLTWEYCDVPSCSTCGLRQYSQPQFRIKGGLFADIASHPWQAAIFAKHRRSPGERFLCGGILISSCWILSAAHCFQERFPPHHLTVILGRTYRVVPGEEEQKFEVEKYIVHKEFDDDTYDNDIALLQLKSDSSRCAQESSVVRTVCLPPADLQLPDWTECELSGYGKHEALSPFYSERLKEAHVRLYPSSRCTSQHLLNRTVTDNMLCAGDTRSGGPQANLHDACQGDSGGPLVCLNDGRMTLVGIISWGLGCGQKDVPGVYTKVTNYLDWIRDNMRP

NCCCCCNC(=O)CCCCCNC(=O)[C@H](CCCCN)NC(=O)[C@@H](N)Cc1ccccc1 [Compound 11, H–Phe–Lys–EACA–NH–(CH2)5–NH2]
IC50 (tPA): > 20 mM
IC50 (uPA): > 20 mM
IC50 (plasmin [1]): 4.82 ± 0.39 mM
IC50 (thrombin): > 20 mM

C[C@@H](N)C(=O)N[C@@H](Cc1ccccc1)C(=O)N[C@@H](CCCCN)C(=O)NCCCCCC(=O)NCCCCCN [Compound 12, H–D-Ala–Phe–Lys–EACA–NH–(CH2)5–NH2]
IC50 (trypsin; amidolytic activity, Bzl-L-Arg-pNA, borane buffer pH 7.5): > 20 mM
IC50 (tPA): > 20 mM
IC50 (uPA): > 20 mM
IC50 (plasmin [1]): 1.11 ± 0.09 mM
IC50 (thrombin): > 20 mM

C[C@H](N)C(=O)N[C@@H](Cc1ccccc1)C(=O)N[C@@H](CCCCN)C(=O)NCCCCCC(=O)NCCCCCN [Compound 13, H–Ala–Phe–Lys–EACA–NH–(CH2)5–NH2]
IC50 (tPA): > 20 mM
IC50 (uPA): > 20 mM
IC50 (plasmin [1]): 1.4 ± 0.11 mM
IC50 (thrombin): > 20 mM

C[C@@H](N)C(=O)N[C@@H](Cc1ccccc1)C(=O)NCCCCCC(=O)NCCCCCN [Compound 14, H–D-Ala–Phe–EACA–NH–(CH2)5–NH2]
IC50 (tPA): > 20 mM
IC50 (uPA): > 20 mM
IC50 (plasmin [1]): 4.77 ± 0.38 mM
IC50 (thrombin): > 20 mM

C[C@H](N)C(=O)N[C@@H](Cc1ccccc1)C(=O)NCCCCCC(=O)NCCCCCN [Compound 15, H–Ala–Phe–EACA–NH–(CH2)5–NH2]
IC50 (tPA): > 20 mM
IC50 (uPA): > 20 mM
IC50 (plasmin [1]): > 20 mM
IC50 (thrombin): > 20 mM

NCCCCCC(=O)O [EACA, 6-aminohexanoic acid]
cytotoxic effect / viability of fibroblast cells (fibroblast cells): did not display cytotoxicity
influence on the enzymatic activity of kallikrein (kallikrein): No effect
clotting time (CT, coagulation time) [2]: 137 s
lysis of the clot in 45 min (from LI45) [2]: 1%
LOT lysis onset time (clot amplitude reduced by 15 %) [2]: ≥4084 s
LT lysis time (clot reduced/lysed by 90 %) [2]: ≥168 min
LI30 lysis index, amplitude of clot after 30 min [2]: 100%
LI45 lysis index, amplitude of clot after 45 min [2]: 98%
LI60 lysis index, amplitude of clot after 60 min [2]: 92%
effect on amidolytic activity of trypsin (in words) (trypsin; maximum concentration 20 mM): No effect
effect on amidolytic activity of tPA (in words) (tPA; maximum concentration 20 mM): No effect
effect on amidolytic activity of uPA (in words) (uPA; maximum concentration 20 mM): No effect
cytotoxic effect / viability of DLD-1 cells [3]: did not display cytotoxicity
cytotoxic effect / viability of MDA-MB-231 cells (MDA-MB-231 cells): did not display cytotoxicity
cytotoxic effect / viability of MCF-7 cells (MCF-7 cells): did not display cytotoxicity
effect on amidolytic activity of plasmin (in words) (plasmin [1]; maximum concentration 20 mM): No effect
effect on amidolytic activity of thrombin (in words) (thrombin; maximum concentration 20 mM): No effect

NCCCCCC(N)=O [H–EACA–NH2, reference compound]
clotting time (CT, coagulation time) [2]: 117 s
lysis of the clot in 45 min (from LI45) [2]: 20%
LOT lysis onset time (clot amplitude reduced by 15 %) [2]: 2488 ± 172 s
LT lysis time (clot reduced/lysed by 90 %) [2]: 71 ± 5 min
LI30 lysis index, amplitude of clot after 30 min [2]: 96%
LI45 lysis index, amplitude of clot after 45 min [2]: 80%
LI60 lysis index, amplitude of clot after 60 min [2]: 32%

H-[dA]-Phe-Lys-NH2
plasmin inhibitory activity (plasmin [4]; ref Markowska et al. ([2007])): no activity
inhibitory effect on plasmin activity (plasmin [4]): completely lacked this effect

H–Ala–Phe–Lys–NH2
inhibitory effect on plasmin activity (plasmin [4]): completely lacked this effect

H–Ala–Phe–Lys–NH–(CH2)5–NH2
plasmin inhibitory activity (plasmin [4]; [5]): no plasmin inhibitory activity

H–D-Ala–Phe–Lys–NH–(CH2)5–NH2
plasmin inhibitory activity (plasmin [4]; [5]): no activity

— article PMC5401710, “Peptides with 6-Aminohexanoic Acid: Synthesis and Evaluation as Plasmin Inhibitors” (International Journal of Peptide Research and Therapeutics, 2016)
